The nature of series [1]: Solubility in MPK. It is filed as physicochemical. Particulars: solvent MPK.

By melting point is commonly meant the temperature of the solid-liquid transition. In turn, `C=CC(=O)OCCCCCCOc1ccc(C(=O)Oc2ccc(OC(=O)c3ccc(OCCCCCCOC(=O)C=C)cc3)c(C(=O)OCCCCCCCCOc3ccc(-c4ccc(C#N)cc4)cc3)c2)cc1` had a melting point of 72 °C. Further, the “Solubility in MPK” value in series [1] was 7.2%.
For `C=CC(=O)OCCCCCCOc1ccc(C(=O)Oc2ccc(OC(=O)c3ccc(OCCCCCCOC(=O)C=C)cc3)c(C(=O)OCCOCCOc3ccc(-c4ccc(C#N)cc4)cc3)c2)cc1` the same measures were 54 °C and 33.2%.

Values taken from patent US6733690B1, “Laterally substituted curable liquid crystals” (Rolic AG, priority 1999, dated 2004).
